We go through 17 compounds from patent US20250066344A1 (BRISTOL-MYERS SQUIBB COMPANY, priority 2021, published 2025).

The target of this test is T1, human RXFP1 (Homo sapiens, UniProt Q9HBX9).
T1 construct: expressed in transfected cells
T1 sequence (Q9HBX9 1-757): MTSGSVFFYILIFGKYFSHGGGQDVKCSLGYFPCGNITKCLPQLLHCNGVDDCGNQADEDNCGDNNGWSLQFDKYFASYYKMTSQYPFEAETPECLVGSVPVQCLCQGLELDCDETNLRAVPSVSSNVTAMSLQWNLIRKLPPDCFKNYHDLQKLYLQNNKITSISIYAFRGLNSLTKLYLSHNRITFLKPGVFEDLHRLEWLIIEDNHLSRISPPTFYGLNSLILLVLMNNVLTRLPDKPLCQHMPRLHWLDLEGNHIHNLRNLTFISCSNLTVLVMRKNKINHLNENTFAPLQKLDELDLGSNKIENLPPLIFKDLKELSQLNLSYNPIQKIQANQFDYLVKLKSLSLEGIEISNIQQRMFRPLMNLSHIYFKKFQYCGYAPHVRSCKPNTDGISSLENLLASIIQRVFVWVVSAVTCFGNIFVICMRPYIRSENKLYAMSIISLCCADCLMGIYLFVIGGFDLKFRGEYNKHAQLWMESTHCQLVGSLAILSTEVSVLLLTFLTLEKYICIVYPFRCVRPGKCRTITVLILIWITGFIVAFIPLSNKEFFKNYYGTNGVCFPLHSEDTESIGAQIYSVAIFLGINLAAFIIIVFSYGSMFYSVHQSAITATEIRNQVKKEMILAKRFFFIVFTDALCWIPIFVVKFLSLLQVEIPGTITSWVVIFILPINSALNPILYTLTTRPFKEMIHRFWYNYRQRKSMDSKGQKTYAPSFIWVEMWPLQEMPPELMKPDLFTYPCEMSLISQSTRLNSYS
Nature of the test: RXFP1 cyclic adenosine monophosphate (cAMP) assay, hRXFP1 HEK293. The format is cell-based. To be noted: HEK293 cells stably expressing human RXFP1; 30 min at room temperature; HTRF cAMP. In short, it runs like this: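 HEK293 cells stably expressing human RXFP1 were exposed to compounds (0.010 nM–50 μM, 2% DMSO) for 30 min at room temperature in HBSS/HEPES buffer with 0.5 mM IBMX. Intracellular cAMP was measured by HTRF against a cAMP standard curve; EC50 from 4-parameter logistic fit.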
For `COc1ccc(-c2nc(N3CCOCC3)no2)cc1C(=O)Nc1cc2c(cc1C(=O)Nc1ccc(F)c(C(F)(F)F)c1)OC(F)(F)O2` [Example 87, 2,2-difluoro-N-(4-fluoro-3-(trifluoromethyl)phenyl)-6-(2-methoxy-5-(3-morpholino-1,2,4-oxadiazol-5-yl)benzamido)benzo[d] [1,3]dioxole-5-carboxamide], the EC50 came out at 161 nM.
The compound `COc1ccc(C2=NOC3(CCNCC3)C2)cc1C(=O)Nc1cc2c(cc1C(=O)Nc1ccc(F)c(C(F)(F)F)c1)OC(F)(F)O2` [Example 67, 2,2-difluoro-N-(4-fluoro-3-(trifluoromethyl)phenyl)-6-(2-methoxy-5-(1-oxa-2,8-diazaspiro[4.5]dec-2-en-3-yl)benzamido)benzo[d] [1,3]dioxole-5-carboxamide] gave an EC50 of 309 nM. This EC50 is about 1.9-fold higher than that of the compound before.
Regarding `COc1ccc(C2CCN(C(=O)C(C)(C)O)C2)cc1C(=O)Nc1cc2c(cc1C(=O)Nc1ccc(F)c(C(F)(F)F)c1)OC(F)(F)O2` (single isomer, unassigned) [Example 46, 2,2-difluoro-N-(4-fluoro-3-(trifluoromethyl)phenyl)-6-(5-(1-(2-hydroxy-2-methylpropanoyl)pyrrolidin-3-yl)-2-methoxybenzamido)benzo[d][1,3]dioxole-5-carboxamide], a half-maximal effect (EC50) was put at 49 nM.
Turning to `COc1ccc(-c2noc(C(C)(C)O)n2)cc1C(=O)Nc1cc2c(cc1C(=O)Nc1ccc(F)c(C(F)(F)F)c1)OC(F)(F)O2` [Example 84, 2,2-difluoro-N-(4-fluoro-3-(trifluoromethyl)phenyl)-6-(5-(5-(2-hydroxypropan-2-yl)-1,2,4-oxadiazol-3-yl)-2-methoxybenzamido) benzo[d][1,3]dioxole-5-carboxamide], a half-maximal response (EC50) required 485 nM.
Take `COc1ccc(C(=O)N2CCC3(CC2)COC3)cc1C(=O)Nc1cc2c(cc1C(=O)Nc1ccc(F)c(C(F)(F)F)c1)OC(F)(F)O2` [Example 42, 2,2-difluoro-N-(4-fluoro-3-(trifluoromethyl)phenyl)-6-(2-methoxy-5-(2-oxa-7-azaspiro[3.5]nonane-7-carbonyl)benzamido) benzo[d][1,3]dioxole-5-carboxamide]: a half-maximal response (EC50) required 1200 nM.
Compound `COc1ccc(C(=O)N2CC(C(C)(C)O)C2)cc1C(=O)Nc1cc2c(cc1C(=O)Nc1ccc(F)c(C(F)(F)F)c1)OC(F)(F)O2` [Example 38, 2,2-difluoro-N-(4-fluoro-3-(trifluoromethyl)phenyl)-6-(5-(3-(2-hydroxypropan-2-yl)azetidine-1-carbonyl)-2-methoxybenzamido) benzo[d][1,3]dioxole-5-carboxamide] registered a concentration giving a half-maximal response (EC50) of 84 nM.
For the compound `COc1ccc(CN2CC3(C2)CS(=O)(=O)C3)cc1C(=O)Nc1cc2c(cc1C(=O)Nc1ccc(F)c(C(F)(F)F)c1)OC(F)(F)O2` [Example 88, 6-(5-((2,2-dioxido-2-thia-6-azaspiro[3.3]heptan-6-yl)methyl)-2-methoxybenzamido)-2,2-difluoro-N-(4-fluoro-3-(trifluoromethyl)phenyl) benzo[d][1,3]dioxole-5-carboxamide], it took 274 nM to reach a half-maximal effect (EC50).
In turn, `COc1ccc(-c2cc([C@H](C)O)on2)cc1C(=O)Nc1cc2c(cc1C(=O)Nc1ccc(F)c(C(F)(F)F)c1)OC(F)(F)O2` [Example 73, (S)-2,2-difluoro-N-(4-fluoro-3-(trifluoromethyl)phenyl)-6-(5-(5-(1-hydroxyethyl)isoxazol-3-yl)-2-methoxybenzamido) benzo[d][1,3]dioxole-5-carboxamide] registered an EC50 of 96 nM.
As to `COc1ccc(-c2cnc3n2CCN(CCO)C3)cc1C(=O)Nc1cc2c(cc1C(=O)Nc1ccc(F)c(C(F)(F)F)c1)OC(F)(F)O2` [Example 80, 2,2-difluoro-N-(4-fluoro-3-(trifluoromethyl)phenyl)-6-(5-(7-(2-hydroxyethyl)-5,6,7,8-tetrahydroimidazo[1,2-a]pyrazin-3-yl)-2-methoxybenzamido) benzo[d][1,3]dioxole-5-carboxamide], the midpoint of the response, the EC50, lay at 260 nM. This EC50 lies about 2.7-fold higher than the previous one.
For the compound `COc1ccc(C2=NOC3CS(=O)(=O)CC23)cc1C(=O)Nc1cc2c(cc1C(=O)Nc1ccc(F)c(C(F)(F)F)c1)OC(F)(F)O2` (centres unmarked) [Example 65, 6-(5-(5,5-dioxido-3a,4,6,6a-tetrahydrothieno[3,4-d]isoxazol-3-yl)-2-methoxybenzamido)-2,2-difluoro-N-(4-fluoro-3-(trifluoromethyl)phenyl) benzo[d][1,3]dioxole-5-carboxamide], the EC50 was 285 nM.
The result for `COc1ccc(C2CCCN(C3COC3)CC2)cc1C(=O)Nc1cc2c(cc1C(=O)Nc1ccc(F)c(C(F)(F)F)c1)OC(F)(F)O2` (centres unmarked) [Example 95, 2,2-difluoro-N-(4-fluoro-3-(trifluoromethyl)phenyl)-6-(2-methoxy-5-(1-(oxetan-3-yl)azepan-4-yl)benzamido)benzo[d] [1,3]dioxole-5-carboxamide] reads 862 nM.
Take `O=C(Nc1cc2c(cc1C(=O)Nc1ccc(F)c(C(F)(F)F)c1)OC(F)(F)O2)c1csc(C2=NOC3COCC23)n1` (single isomer, unassigned) [Example 94, N-(2,2-difluoro-6-((4-fluoro-3-(trifluoromethyl)phenyl)carbamoyl)benzo[d][1,3]dioxol-5-yl)-2-(3a,4,6,6a-tetrahydrofuro[3,4-d]isoxazol-3-yl)thiazole-4-carboxamide]: the 50% effective concentration (EC50) worked out at 1400 nM.
Compound `COc1ccc(C2=NOC3CN(C(=O)CO)CC23)cc1C(=O)Nc1cc2nc(C)sc2cc1C(=O)Nc1ccc(F)c(C(F)(F)F)c1` (centres unmarked) [Example 5, N-(4-fluoro-3-(trifluorometh-yl)phenyl)-5-(5-(5-(2-hy-droxyacetyl)-3a,5,6,6a-tetra-hydro-4H-pyr-rolo[3,4-d]isoxazol-3-yl)-2-methoxy-benzamido)-2-methylbenzo [d]thiazole-6-carboxamide] came in with an EC50 of 16 nM.
The result for `COc1ccc(C#CC(C)(C)O)cc1C(=O)Nc1cc2c(cc1C(=O)Nc1ccc(F)c(C(F)(F)F)c1)OC(F)(F)O2` [Example 58, 2,2-difluoro-N-(4-fluoro-3-(trifluoromethyl)phenyl)-6-(5-(3-hydroxy-3-methylbut-1-yn-1-yl)-2-methoxybenzamido) benzo[d][1,3]dioxole-5-carboxamide] reads 1060 nM; that for `COc1ccc(C2=NOC3(CCNC3)C2)cc1C(=O)Nc1cc2c(cc1C(=O)Nc1ccc(F)c(C(F)(F)F)c1)OC(F)(F)O2` (centres unmarked) [Example 66, 2,2-difluoro-N-(4-fluoro-3-(trifluoromethyl)phenyl)-6-(2-methoxy-5-(1-oxa-2,7-diazaspiro[4.4]non-2-en-3-yl)benzamido)benzo[d] [1,3]dioxole-5-carboxamide], 338 nM; that for `COc1cc(F)c(C(=O)NCC2(S(C)(=O)=O)CC2)cc1C(=O)Nc1cc2c(cc1C(=O)Nc1ccc(F)c(C(F)(F)F)c1)OC(F)(F)O2` [Example 36, N1-(2,2-difluoro-6-((4-fluoro-3-(trifluoromethyl)phenyl)carbamoyl)benzo[d] [1,3]dioxol-5-yl)-4-fluoro-6-methoxy-N3-((1-(methylsulfonyl)cyclopropyl)methyl)iso-phthalamide], 14 nM.
Turning to `COc1ccc(C(=O)N(C)CCS(C)(=O)=O)cc1C(=O)Nc1cc2c(cc1C(=O)Nc1ccc(F)c(C(F)(F)F)c1)OC(F)(F)O2` [Example 41], a half-maximal effect (EC50) was put at 562 nM.
